pIC50: −log10 of the molar value. Calls of active or inactive are those of the source.
Tests used:
Toxin B [1] = target: T1, Toxin B (Clostridioides difficile, UniProt P18177); test: Inhibition of C-terminal 6-His tagged recombinant Clostridium difficile toxin B catalytic fragment (Met1 to Leu543 residues) assessed as reduction in glucosyltransferase domain UDP-glucose hydrolysis activity using UDP-glucose and ADP Alexa633 tracer incubated fore 3 hrs by fluorescence polarization assay
Toxin B [2] = target: T1, Toxin B; test: Inhibition of Clostridium difficile toxin B […] assessed as reduction in caspase 3/7 activation pre-incubated for 1 hr before TcdB addition by luminescence based assay1; format: cell-based
Bifidobacterium longum = test: Effect on growth of Bifidobacterium longum at 0.5 to 100 uM incubated for 24 hrs under anaerobic conditions by spectrophotometry; format: organism-based
[3] = test system: Limosilactobacillus reuteri; test: Effect on growth of Lactobacillus reuteri at 0.5 to 100 uM incubated for 24 hrs under anaerobic conditions by spectrophotometry; format: organism-based
[4] = Stability in human liver microsomes assessed as parent compound remaining level incubated for 15 mins; format: ADME, microsome; details: read-out: Stability
Clostridioides difficile = test: Effect on growth of Clostridium difficile at 0.5 to 100 uM incubated for 24 hrs under anaerobic conditions by spectrophotometry; format: functional, organism-based
[5] = Stability in mouse liver microsomes assessed as parent compound remaining level incubated for 15 mins; format: ADME, microsome; details: read-out: Stability
Bacteroides fragilis = test: Effect on growth of Bacteroides fragilis at 0.5 to 100 uM incubated for 48 hrs under anaerobic conditions by spectrophotometry; format: organism-based
[6] = AUC (0 to 24 hrs) in CD1 mouse at 1 mg/kg, iv; format: ADME, organism-based; design: dose 1 mg/kg, time < 24 hr, route intravenous; details: in vivo
[7] = Cmax in CD1 mouse at 1 mg/kg, iv; format: ADME, organism-based; design: dose 1 mg/kg, route intravenous; details: in vivo
[8] = Cmax in CD1 mouse at 10 mg/kg, po; format: ADME, organism-based; design: dose 10 mg/kg, route oral; details: in vivo
[9] = Stability in mouse plasma assessed as parent compound remaining measured after 2 hrs post dose; format: ADME, cell-free
Toxin A = Toxin A (Clostridioides difficile, UniProt P16154); test: Inhibition of Clostridium difficile toxin A […] assessed as reduction in caspase 3/7 activation pre-incubated for 1 hr before TcdA addition by luminescence based assay1; format: cell-based
Toxin A, sequence (P16154 whole entry): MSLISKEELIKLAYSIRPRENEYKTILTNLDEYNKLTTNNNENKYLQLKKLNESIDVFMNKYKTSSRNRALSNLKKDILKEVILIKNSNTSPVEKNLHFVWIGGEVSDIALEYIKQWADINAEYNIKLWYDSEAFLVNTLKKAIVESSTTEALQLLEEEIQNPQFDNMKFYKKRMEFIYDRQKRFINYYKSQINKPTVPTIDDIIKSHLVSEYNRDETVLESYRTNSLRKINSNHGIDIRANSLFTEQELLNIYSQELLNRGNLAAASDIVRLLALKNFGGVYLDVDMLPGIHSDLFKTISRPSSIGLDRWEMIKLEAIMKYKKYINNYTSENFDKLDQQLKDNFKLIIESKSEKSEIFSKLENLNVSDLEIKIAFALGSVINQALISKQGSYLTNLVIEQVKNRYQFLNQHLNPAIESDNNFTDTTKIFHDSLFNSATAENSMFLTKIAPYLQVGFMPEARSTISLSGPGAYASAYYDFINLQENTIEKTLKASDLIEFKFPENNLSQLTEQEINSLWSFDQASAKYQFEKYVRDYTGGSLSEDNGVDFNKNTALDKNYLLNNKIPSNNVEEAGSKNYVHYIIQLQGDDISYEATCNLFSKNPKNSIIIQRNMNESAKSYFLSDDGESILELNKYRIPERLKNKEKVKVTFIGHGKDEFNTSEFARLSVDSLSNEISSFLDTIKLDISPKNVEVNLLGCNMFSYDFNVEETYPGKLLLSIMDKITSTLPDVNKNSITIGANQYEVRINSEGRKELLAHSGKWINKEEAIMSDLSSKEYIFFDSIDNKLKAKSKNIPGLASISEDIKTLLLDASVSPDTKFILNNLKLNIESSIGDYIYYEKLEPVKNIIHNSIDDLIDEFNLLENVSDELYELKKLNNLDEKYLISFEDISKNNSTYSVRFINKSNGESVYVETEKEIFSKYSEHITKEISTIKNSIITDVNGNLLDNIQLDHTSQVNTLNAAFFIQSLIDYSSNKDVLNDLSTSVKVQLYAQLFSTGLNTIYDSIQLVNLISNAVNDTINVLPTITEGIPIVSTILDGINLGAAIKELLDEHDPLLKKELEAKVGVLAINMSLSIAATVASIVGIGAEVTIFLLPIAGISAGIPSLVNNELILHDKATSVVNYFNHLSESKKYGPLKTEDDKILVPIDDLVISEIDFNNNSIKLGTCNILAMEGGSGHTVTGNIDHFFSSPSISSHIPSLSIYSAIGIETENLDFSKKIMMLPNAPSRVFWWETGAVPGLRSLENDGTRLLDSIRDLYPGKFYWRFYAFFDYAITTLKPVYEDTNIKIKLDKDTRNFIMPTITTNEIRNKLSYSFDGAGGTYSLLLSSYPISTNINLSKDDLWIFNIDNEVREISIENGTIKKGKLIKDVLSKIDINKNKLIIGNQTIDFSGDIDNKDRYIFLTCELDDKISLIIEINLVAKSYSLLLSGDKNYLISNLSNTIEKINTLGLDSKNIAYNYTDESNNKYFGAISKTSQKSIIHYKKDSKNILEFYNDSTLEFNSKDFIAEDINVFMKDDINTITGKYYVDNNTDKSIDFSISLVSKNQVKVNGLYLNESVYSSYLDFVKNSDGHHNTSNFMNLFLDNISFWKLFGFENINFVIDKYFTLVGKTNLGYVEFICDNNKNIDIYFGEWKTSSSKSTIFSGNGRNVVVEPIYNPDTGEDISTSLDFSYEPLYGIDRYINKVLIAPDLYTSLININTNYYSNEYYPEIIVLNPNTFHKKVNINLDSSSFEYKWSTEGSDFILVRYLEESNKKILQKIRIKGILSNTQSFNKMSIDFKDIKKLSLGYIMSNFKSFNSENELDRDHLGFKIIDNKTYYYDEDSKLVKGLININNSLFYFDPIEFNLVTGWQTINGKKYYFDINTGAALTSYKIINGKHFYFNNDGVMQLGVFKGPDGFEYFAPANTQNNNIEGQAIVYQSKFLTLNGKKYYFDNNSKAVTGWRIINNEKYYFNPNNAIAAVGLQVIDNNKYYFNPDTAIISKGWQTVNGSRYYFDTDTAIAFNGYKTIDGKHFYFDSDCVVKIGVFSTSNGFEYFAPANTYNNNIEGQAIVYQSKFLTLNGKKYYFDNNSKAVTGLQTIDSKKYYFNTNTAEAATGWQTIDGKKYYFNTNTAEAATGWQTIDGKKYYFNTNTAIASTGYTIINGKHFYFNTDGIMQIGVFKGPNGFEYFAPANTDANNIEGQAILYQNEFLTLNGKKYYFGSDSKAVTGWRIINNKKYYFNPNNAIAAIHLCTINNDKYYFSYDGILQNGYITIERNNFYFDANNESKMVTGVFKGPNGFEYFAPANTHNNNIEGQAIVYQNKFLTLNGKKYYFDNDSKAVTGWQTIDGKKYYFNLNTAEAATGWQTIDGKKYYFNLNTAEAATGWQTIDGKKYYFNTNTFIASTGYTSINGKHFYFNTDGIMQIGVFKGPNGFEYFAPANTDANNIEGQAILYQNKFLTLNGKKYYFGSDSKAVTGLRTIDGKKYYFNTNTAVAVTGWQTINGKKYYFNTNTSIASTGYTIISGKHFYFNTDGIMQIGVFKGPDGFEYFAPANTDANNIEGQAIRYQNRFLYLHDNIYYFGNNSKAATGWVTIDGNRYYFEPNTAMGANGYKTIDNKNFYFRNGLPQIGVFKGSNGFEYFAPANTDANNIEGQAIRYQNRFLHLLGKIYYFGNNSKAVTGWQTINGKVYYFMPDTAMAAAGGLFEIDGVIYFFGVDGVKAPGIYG

[10] = AUC (0 to 24 hrs) in CD1 mouse at 10 mg/kg, po; format: ADME, organism-based; design: dose 10 mg/kg, time < 24 hr, route oral; details: in vivo
[11] = Stability in mouse plasma assessed as parent compound remaining measured after 15 mins post dose; format: ADME, cell-free; details: read-out: Stability
[12] = Tmax in CD1 mouse at 10 mg/kg, po; format: ADME, organism-based; details: in vivo
[13] = Elimination half life in CD1 mouse at 1 mg/kg, iv; format: ADME, organism-based; details: in vivo, read-out: beta t1/2 (converted)
[14] = Clearance in CD1 mouse at 1 mg/kg, iv; format: ADME, organism-based; details: in vivo
[15] = Apparent volume of distribution in CD1 mouse at 1 mg/kg, iv; format: ADME, organism-based; details: in vivo, read-out: Vz
[16] = Stability in mouse plasma assessed as parent compound remaining measured during 0 to 120 mins post dose; format: ADME, cell-free

T1 sequence (P18177 whole entry, the tested form may be a part): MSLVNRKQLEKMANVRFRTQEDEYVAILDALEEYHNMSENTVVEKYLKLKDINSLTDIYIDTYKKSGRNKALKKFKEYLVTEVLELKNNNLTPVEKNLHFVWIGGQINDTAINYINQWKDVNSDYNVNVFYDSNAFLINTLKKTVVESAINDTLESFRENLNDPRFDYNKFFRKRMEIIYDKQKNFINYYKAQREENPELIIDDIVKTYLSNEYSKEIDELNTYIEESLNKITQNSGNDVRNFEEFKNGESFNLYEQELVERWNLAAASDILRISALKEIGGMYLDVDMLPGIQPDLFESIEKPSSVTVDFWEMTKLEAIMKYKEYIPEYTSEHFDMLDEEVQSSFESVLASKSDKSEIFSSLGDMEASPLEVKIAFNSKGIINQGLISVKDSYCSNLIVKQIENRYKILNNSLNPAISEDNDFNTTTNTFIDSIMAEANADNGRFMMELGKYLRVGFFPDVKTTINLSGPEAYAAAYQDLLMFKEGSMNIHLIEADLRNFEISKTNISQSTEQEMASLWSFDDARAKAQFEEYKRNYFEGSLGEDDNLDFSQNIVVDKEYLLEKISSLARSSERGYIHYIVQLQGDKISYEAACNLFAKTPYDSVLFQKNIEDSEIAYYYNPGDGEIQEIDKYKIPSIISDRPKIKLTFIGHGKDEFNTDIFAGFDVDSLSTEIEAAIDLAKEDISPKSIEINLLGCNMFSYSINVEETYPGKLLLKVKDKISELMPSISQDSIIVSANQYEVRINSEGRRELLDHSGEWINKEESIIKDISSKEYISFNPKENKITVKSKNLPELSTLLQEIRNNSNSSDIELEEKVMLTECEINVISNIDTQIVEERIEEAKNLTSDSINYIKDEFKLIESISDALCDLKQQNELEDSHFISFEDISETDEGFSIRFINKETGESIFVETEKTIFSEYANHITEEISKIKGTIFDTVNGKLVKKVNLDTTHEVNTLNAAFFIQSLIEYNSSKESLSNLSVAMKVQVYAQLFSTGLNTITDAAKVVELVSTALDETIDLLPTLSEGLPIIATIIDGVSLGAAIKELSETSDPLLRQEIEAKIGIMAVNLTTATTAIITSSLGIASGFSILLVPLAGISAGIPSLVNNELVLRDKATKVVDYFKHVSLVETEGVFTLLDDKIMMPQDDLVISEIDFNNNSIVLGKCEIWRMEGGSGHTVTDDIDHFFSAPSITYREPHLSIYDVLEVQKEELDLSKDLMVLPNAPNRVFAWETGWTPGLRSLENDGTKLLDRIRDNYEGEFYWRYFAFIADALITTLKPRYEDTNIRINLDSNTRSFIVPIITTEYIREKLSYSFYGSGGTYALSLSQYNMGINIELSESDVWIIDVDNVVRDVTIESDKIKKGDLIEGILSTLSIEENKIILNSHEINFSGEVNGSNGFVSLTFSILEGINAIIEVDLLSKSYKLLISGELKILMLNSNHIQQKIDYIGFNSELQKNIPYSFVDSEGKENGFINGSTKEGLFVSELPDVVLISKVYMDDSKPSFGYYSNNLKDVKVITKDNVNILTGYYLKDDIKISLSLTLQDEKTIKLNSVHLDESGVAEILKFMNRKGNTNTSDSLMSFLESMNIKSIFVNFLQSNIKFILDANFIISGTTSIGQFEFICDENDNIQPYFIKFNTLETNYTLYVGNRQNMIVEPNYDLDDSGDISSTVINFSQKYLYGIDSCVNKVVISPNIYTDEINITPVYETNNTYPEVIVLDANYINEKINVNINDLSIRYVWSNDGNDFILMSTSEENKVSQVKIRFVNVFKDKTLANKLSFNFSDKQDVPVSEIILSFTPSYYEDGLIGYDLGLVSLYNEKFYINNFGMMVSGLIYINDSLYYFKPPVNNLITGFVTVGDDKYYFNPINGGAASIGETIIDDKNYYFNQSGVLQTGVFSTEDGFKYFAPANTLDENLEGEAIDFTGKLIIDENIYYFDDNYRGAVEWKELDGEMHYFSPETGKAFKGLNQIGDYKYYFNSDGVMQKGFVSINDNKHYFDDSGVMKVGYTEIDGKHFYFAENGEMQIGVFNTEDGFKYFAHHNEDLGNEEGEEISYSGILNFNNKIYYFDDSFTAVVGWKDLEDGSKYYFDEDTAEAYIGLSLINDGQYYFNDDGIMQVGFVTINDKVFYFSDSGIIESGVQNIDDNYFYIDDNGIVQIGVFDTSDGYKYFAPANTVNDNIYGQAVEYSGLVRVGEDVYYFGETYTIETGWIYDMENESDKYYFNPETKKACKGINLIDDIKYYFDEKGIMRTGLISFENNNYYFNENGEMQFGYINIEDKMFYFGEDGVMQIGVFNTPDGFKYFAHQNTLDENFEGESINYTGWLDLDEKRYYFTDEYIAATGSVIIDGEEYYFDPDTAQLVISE

Structure (SMILES) | pIC50 (Toxin B [1]) | pIC50 (Toxin B [2]) | Activity (Bifidobacterium longum) | Activity [3] | remaining at 0.25 h [4] | Activity (Clostridioides difficile) | remaining at 0.25 h [5] | Activity (Bacteroides fragilis) | AUC(0-t) at 24 h [6] | Cmax [7] | Cmax [8] | Stability [9] | pIC50 (Toxin A) | AUC(0-t) at 24 h [10] | remaining at 0.25 h [11] | Tmax [12] | half-life [13] | clearance [14] | Vd [15] | Stability [16]
O=C(Nc1nccs1)c1ccc(CN2C(=O)c3ccc(Cl)cc3NC(=O)[C@H]2Cc2cccnc2)cc1 | 7.38 | 4.70 | Non-Toxic | Non-Toxic | 61% | inactive | 67% | Non-Toxic |  |  |  |  |  |  |  |  |  |  |  | 
O=C(Nc1ccccn1)c1ccc(CN2C(=O)c3ccc(Cl)cc3NC(=O)[C@H]2Cc2ccccn2)cc1 | 8.52 | 6.64 | Non-Toxic | Non-Toxic | 99% | inactive | 53% | Non-Toxic |  |  |  |  |  |  |  |  |  |  |  | 
O=C(Nc1ccccn1)c1ccc(CN2C(=O)c3ccc(Cl)cc3NC(=O)[C@H]2Cc2cccnc2)cc1 | 8.05 | 5.35 | Non-Toxic | Non-Toxic | 97% | inactive | 57% | Non-Toxic |  |  |  |  |  |  |  |  |  |  |  | 
COc1cnc(NC(=O)c2ccc(CN3C(=O)c4ccc(Cl)cc4NC(=O)[C@H]3Cc3ccccn3)cc2)nc1 | 8.15 | 6.28 | Non-Toxic | Non-Toxic | 90% | inactive | 77% | Non-Toxic | 2 ng·h/mL | 2 ng/mL | 27 ng/mL | Unstable | 5.59 | 181 ng·h/mL | 50% | 30 min |  |  |  | 
O=C(Nc1cnccn1)c1ccc(CN2C(=O)c3ccc(Cl)cc3NC(=O)[C@H]2Cc2cccnc2)cc1 | 7.11 | 4.89 | Non-Toxic | Non-Toxic | 92% | inactive | 98% | Non-Toxic |  |  |  |  |  |  |  |  |  |  |  | 
COc1ccc(NC(=O)c2ccc(CN3C(=O)c4ccc(Cl)cc4NC(=O)[C@H]3Cc3ccccn3)cc2)nc1 | 8.52 | 7.37 | Non-Toxic | Non-Toxic | 81% | inactive | 61% | Non-Toxic |  |  |  |  | 5.96 |  |  |  |  |  |  | 
Cc1ccc(NC(=O)c2ccc(CN3C(=O)c4ccc(Cl)cc4NC(=O)[C@H]3Cc3ccccn3)cc2)nc1 | 9.00 | 6.77 | Non-Toxic | Non-Toxic | 63% | inactive | 43% | Non-Toxic | 200 ng·h/mL | 1030 ng/mL | 2690 ng/mL |  | 5.49 | 1070 ng·h/mL |  | 15 min | 60 min | 76 mL/min/kg | 6.9 L/kg | Unstable

Source: ChEMBL document CHEMBL4184209, “Identification and initial optimization of inhibitors of Clostridium difficile (C. difficile) toxin B (TcdB)” (Bioorg Med Chem Lett, 2018)
